What is called IC50 is the midpoint of a concentration-inhibition curve. As a reminder, the Ki is the equilibrium dissociation constant of an inhibitor or competing ligand from its target.

The record followed here is ChEMBL document CHEMBL1909046, “DrugMatrix in vitro pharmacology data”.

For series [1], the target named is Beta-3 adrenergic receptor (Homo sapiens, UniProt P13945). As to the kind of experiment: DRUGMATRIX: Adrenergic beta3 radioligand binding (ligand: [125I] Cyanopindolol). The class given is cell membranes, Membrane. Particulars: hek293; Not Active = under 50% inhibition at 10 µM.
Series [2] has as its target T1, 5-hydroxytryptamine receptor 1A (Rattus norvegicus, UniProt P19327). Also: in other assays of this panel Not Active means under 50% inhibition at 10 µM.
T1 sequence (P19327 whole entry): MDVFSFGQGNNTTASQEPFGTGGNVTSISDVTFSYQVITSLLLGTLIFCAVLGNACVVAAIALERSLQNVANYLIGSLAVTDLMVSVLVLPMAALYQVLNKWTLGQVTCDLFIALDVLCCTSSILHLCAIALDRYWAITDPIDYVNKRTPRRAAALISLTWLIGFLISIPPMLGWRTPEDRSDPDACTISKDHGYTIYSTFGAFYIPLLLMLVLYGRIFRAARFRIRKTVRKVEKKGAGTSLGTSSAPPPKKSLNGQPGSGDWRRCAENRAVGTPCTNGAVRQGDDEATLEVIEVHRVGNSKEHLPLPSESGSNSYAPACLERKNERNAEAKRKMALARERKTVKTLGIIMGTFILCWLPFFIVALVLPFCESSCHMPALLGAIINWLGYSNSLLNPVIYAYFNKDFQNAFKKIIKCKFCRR
The class given is cell membranes, Membrane. Particulars: cho-k1.

The target of series [3] is 5-hydroxytryptamine receptor 2B (Homo sapiens, UniProt P41595). The class given is cell membranes, CHO-K1, Membrane. Also: in other assays of this panel Not Active means under 50% inhibition at 10 µM.
Series [4] has as its target Histamine H2 receptor (Homo sapiens, UniProt P25021). The class given is cell membranes, CHO-K1, Membrane. The conditions noted are these: cho-k1. Also: in other assays of this panel Not Active means under 50% inhibition at 10 µM.
Series [5] has as its target Cytochrome P450 2C9 (Homo sapiens, UniProt P11712). Particulars: bti-tn-5b1-4. Also: in other assays of this panel Not Active means under 50% inhibition at 10 µM.
For series [6], the target named is T2, Thromboxane-A synthase (Homo sapiens, UniProt P24557).
T2 sequence (P24557 whole entry): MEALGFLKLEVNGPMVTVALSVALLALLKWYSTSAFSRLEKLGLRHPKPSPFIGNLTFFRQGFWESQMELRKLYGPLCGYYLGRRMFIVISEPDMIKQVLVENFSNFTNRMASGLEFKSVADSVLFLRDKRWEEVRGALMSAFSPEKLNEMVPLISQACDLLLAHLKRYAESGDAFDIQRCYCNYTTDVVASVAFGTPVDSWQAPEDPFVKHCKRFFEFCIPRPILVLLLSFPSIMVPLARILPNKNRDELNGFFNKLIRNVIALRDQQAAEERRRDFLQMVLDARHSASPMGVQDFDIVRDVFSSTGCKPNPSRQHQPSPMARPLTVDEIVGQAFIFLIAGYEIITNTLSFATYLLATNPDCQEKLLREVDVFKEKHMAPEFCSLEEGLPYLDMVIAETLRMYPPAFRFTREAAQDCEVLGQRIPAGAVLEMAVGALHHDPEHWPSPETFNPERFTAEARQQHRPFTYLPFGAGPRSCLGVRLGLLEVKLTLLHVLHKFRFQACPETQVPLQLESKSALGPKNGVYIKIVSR
The series is described as follows: biochemical. The class given is tissue-based, Platelet. The conditions noted are these: platelet.

The target in series [7] is Mitogen-activated protein kinase 1 (Homo sapiens, UniProt P28482). The series is described as follows: DRUGMATRIX: Protein Serine/Threonine Kinase, ERK2 enzyme inhibition (substrate: Myelin Basic Protein). The arrangement: species or system Escherichia coli. Particulars: Not Active = under 50% inhibition at 10 µM.
Sequence of Mitogen-activated protein kinase 1 (P28482 whole entry): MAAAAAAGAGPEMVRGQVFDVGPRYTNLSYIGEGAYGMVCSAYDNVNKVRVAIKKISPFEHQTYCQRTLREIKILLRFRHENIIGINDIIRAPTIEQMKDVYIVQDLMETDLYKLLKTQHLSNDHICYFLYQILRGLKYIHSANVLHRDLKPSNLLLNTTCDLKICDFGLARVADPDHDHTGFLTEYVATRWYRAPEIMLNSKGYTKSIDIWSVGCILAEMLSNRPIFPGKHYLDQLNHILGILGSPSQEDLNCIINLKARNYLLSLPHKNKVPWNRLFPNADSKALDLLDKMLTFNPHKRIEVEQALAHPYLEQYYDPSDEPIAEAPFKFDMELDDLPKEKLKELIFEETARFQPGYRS

Sequence of Beta-3 adrenergic receptor (P13945 whole entry): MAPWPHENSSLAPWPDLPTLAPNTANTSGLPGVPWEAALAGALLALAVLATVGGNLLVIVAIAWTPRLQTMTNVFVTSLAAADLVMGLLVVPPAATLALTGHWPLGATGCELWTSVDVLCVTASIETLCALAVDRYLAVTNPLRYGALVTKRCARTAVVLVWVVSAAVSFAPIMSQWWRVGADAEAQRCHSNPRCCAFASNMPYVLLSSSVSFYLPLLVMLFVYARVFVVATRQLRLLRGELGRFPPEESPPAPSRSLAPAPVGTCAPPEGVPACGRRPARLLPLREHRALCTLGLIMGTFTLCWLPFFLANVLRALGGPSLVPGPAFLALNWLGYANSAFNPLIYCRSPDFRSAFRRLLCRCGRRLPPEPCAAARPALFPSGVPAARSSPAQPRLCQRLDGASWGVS
Sequence of Cytochrome P450 2C9 (P11712 whole entry): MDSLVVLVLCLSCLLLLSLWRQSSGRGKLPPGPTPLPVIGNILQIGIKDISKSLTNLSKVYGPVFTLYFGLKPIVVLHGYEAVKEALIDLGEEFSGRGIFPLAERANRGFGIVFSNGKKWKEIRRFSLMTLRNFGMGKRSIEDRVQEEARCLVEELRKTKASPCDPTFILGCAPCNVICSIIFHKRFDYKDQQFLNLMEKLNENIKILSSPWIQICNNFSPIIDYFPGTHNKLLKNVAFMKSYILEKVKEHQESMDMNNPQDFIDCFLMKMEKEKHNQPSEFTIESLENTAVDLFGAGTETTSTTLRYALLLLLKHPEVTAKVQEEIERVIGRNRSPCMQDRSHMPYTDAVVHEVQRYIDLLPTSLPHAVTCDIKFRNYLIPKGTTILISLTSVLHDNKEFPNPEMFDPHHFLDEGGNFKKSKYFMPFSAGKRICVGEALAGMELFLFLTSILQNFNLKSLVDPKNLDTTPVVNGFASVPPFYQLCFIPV
Sequence of 5-hydroxytryptamine receptor 2B (P41595 whole entry): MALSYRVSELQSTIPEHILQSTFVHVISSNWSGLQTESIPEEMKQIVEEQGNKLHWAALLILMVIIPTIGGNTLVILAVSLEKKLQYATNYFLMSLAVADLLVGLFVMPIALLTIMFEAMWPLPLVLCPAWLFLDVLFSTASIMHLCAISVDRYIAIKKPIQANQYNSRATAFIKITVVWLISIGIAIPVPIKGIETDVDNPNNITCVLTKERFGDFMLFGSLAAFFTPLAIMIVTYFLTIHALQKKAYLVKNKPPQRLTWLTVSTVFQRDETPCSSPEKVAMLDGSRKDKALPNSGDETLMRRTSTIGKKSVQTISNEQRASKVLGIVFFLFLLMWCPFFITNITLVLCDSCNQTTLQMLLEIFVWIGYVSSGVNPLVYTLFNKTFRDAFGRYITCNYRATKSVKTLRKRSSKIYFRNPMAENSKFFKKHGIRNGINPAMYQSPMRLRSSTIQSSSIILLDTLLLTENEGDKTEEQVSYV
Sequence of Histamine H2 receptor (P25021 whole entry): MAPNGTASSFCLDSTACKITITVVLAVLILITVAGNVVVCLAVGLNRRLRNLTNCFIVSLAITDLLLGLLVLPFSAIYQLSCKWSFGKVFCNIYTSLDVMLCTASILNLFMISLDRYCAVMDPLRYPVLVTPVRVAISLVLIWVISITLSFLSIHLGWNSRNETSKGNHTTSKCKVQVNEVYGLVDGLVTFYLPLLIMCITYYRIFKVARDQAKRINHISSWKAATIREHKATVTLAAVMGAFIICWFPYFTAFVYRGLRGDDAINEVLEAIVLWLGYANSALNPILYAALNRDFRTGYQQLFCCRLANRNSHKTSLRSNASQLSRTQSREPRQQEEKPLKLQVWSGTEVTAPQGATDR

With `COc1ccc2c(c1)[C@]13CCCC[C@@H]1[C@H](C2)N(C)CC3` [DEXTROMETHORPHAN], the IC50 entry in series [1], in series [2], in series [3] (cho-k1), in series [4], in series [5] and in series [6] was “Not Active” in each case. Further, in series [7], the concentration for half-maximal inhibition (IC50) result is given as “Not Active”. Besides, in series [5], the inhibition constant (Ki) result was “Not Active”.
For the compound `CC(=O)Nc1c(I)c(NC(C)=O)c(I)c(C(=O)O)c1I` [DIATRIZOIC ACID], the IC50 entry in series [1], in series [2], in series [3] (cho-k1), in series [4], in series [5] and in series [6] was “Not Active” each time. In addition, the IC50 entry in series [7] is “Not Active”. For the same compound, the Ki entry in series [5] is listed as “Not Active”.
As to `COP(=O)(OC)OC=C(Cl)Cl` [DICHLORVOS], the IC50 entry in series [1], in series [2], in series [3] (cho-k1), in series [4], in series [5] and in series [6] was “Not Active” in each case. In series [7], the IC50 result is reported as “Not Active”. Moreover, the Ki result in series [5] is on record as “Not Active”.
`O=C(O)Cc1ccccc1Nc1c(Cl)cccc1Cl` [DICLOFENAC]: the IC50 entry in series [1], in series [2], in series [3] (cho-k1), in series [4], in series [5] and in series [6] was “Not Active” throughout. Further, the IC50 entry in series [7] is given as “Not Active”. The Ki result in series [5] was “Not Active”.
Regarding `C[C@H]1O[C@@H](O[C@H]2[C@@H](O)C[C@H](O[C@H]3[C@@H](O)C[C@H](O[C@H]4CC[C@@]5(C)[C@H](CC[C@@H]6[C@@H]5CC[C@]5(C)[C@@H](C7=CC(=O)OC7)CC[C@]65O)C4)O[C@@H]3C)O[C@@H]2C)C[C@H](O)[C@@H]1O` [DIGITOXIN], the IC50 result in series [1], in series [2], in series [3] (cho-k1), in series [4], in series [5] and in series [6] was “Not Active” each time. Also, the IC50 result in series [7] is recorded as “Not Active”. Further, in series [5], the Ki result is “Not Active”.
Turning to `CCN1CC(CCN2CCOCC2)C(c2ccccc2)(c2ccccc2)C1=O` (stereo not drawn) [DOXAPRAM], the IC50 result in series [1], in series [2], in series [3] (cho-k1), in series [4], in series [5] and in series [6] was “Not Active” throughout. Besides, the IC50 entry in series [7] is “Not Active”. In addition, the Ki result in series [5] is reported as “Not Active”.
Regarding `Cn1c(=O)c2c(ncn2CC2OCCO2)n(C)c1=O` [DOXOFYLLINE], the IC50 result in series [1], in series [2], in series [3] (cho-k1), in series [4], in series [5] and in series [6] was “Not Active” in each case. Besides, the IC50 entry in series [7] was “Not Active”. For the same compound, the Ki result in series [5] is reported as “Not Active”.
As to `COc1cccc2c1C(=O)c1c(O)c3c(c(O)c1C2=O)C[C@@](O)(C(=O)CO)C[C@@H]3O[C@H]1C[C@H](N)[C@H](O)[C@H](C)O1` [DOXORUBICIN], the IC50 result in series [1], in series [2], in series [3] (cho-k1), in series [4], in series [5] and in series [6] was “Not Active” throughout. Moreover, in series [7], the IC50 result was “Not Active”. In series [5], the inhibition constant Ki result was “Not Active”.
For `COc1cccc2c1C(=O)c1c(O)c3c(c(O)c1C2=O)C[C@@](O)(C(=O)CO)C[C@@H]3O[C@H]1C[C@H](N)[C@@H](O)[C@H](C)O1` [EPIRUBICIN], the IC50 result in series [1], in series [2], in series [3] (cho-k1), in series [4], in series [5] and in series [6] was “Not Active” each time. For the same compound, in series [7], the IC50 entry is on record as “Not Active”. In addition, the Ki entry in series [5] is given as “Not Active”.
Regarding `C[C@]12CC[C@@H]3c4ccc(OC(=O)c5ccccc5)cc4CC[C@H]3[C@@H]1CC[C@@H]2O` [ESTRADIOL BENZOATE], the IC50 result in series [1] is “Not Active”; in series [2], “Not Active”; in series [3] (read-out: IC50), 11.6 µM; in series [4], “Not Active”; in series [5], “Not Active”; in series [6], “Not Active”. Besides, in series [7], the IC50 result is “Not Active”. Also, the Ki in series [3] (read-out: Ki) was 7.36 µM; in series [5], “Not Active”.
With `C[C@]12CC[C@@H]3c4ccc(O)cc4CC[C@H]3[C@@H]1CC[C@@H]2O` [ESTRADIOL], the half-inhibitory concentration (IC50) result in series [1], in series [2], in series [3] (cho-k1), in series [4], in series [5] and in series [6] was “Not Active” throughout. Moreover, the IC50 result in series [7] is recorded as “Not Active”. Also, in series [5], the inhibition constant (Ki) entry is “Not Active”.
Consider `CC[C@@H](CO)NCCN[C@@H](CC)CO` [ETHAMBUTOL], for which the IC50 result in series [1], in series [2], in series [3] (cho-k1), in series [4], in series [5] and in series [6] was “Not Active” throughout. Also, the half-inhibitory concentration (IC50) result in series [7] was “Not Active”. The Ki entry in series [5] is “Not Active”.
In the case of `CC1(C)O[C@@H]2C[C@H]3[C@@H]4C[C@H](F)C5=CC(=O)C=C[C@]5(C)[C@H]4[C@@H](O)C[C@]3(C)[C@]2(C(=O)CO)O1` [FLUNISOLIDE], the half-inhibitory concentration (IC50) result in series [1], in series [2], in series [3] (cho-k1), in series [4], in series [5] and in series [6] was “Not Active” in each case. In series [7], the IC50 result is “Not Active”. For the same compound, the Ki entry in series [5] is “Not Active”.
For `CC1(C)O[C@@H]2C[C@H]3[C@@H]4C[C@H](F)C5=CC(=O)C=C[C@]5(C)[C@@]4(F)[C@@H](O)C[C@]3(C)[C@]2(C(=O)CO)O1` [FLUOCINOLONE ACETONIDE], the IC50 entry in series [1], in series [2], in series [3] (cho-k1), in series [4], in series [5] and in series [6] was “Not Active” each time. Besides, the IC50 result in series [7] was “Not Active”. Besides, in series [5], the Ki entry is “Not Active”.
For the compound `CC1(C)O[C@@H]2C[C@H]3[C@@H]4C[C@H](F)C5=CC(=O)CC[C@]5(C)[C@H]4[C@@H](O)C[C@]3(C)[C@]2(C(=O)CO)O1` [FLURANDRENOLIDE], the IC50 entry in series [1], in series [2], in series [3] (cho-k1), in series [4], in series [5] and in series [6] was “Not Active” each time. The IC50 entry in series [7] is “Not Active”. For the same compound, the inhibition constant (Ki) result in series [5] is given as “Not Active”.
For the compound `Cc1ccc(S(=O)(=O)NC(=O)NN2CC3CCCC3C2)cc1` (stereo not drawn) [GLICLAZIDE], the IC50 result in series [1], in series [2], in series [3] (cho-k1), in series [4], in series [5] and in series [6] was “Not Active” in each case. In addition, the IC50 result in series [7] is “Not Active”. The Ki entry in series [5] is on record as “Not Active”.
Turning to `CC(C)Cc1ccc(C(C)C(=O)O)cc1` (stereo not drawn) [IBUPROFEN], the IC50 entry in series [1], in series [2], in series [3] (cho-k1), in series [4], in series [5] and in series [6] was “Not Active” throughout. For the same compound, in series [7], the IC50 entry is recorded as “Not Active”. Besides, the Ki result in series [5] is recorded as “Not Active”.
As for `COc1ccc2c(c1)c(CC(=O)O)c(C)n2C(=O)c1ccc(Cl)cc1` [INDOMETHACIN], the IC50 result in series [1], in series [2], in series [3] (cho-k1), in series [4], in series [5] and in series [6] was “Not Active” throughout. The IC50 entry in series [7] is listed as “Not Active”. The Ki entry in series [5] was “Not Active”.
In the case of `CCc1c2c(nc3ccc(OC(=O)N4CCC(N5CCCCC5)CC4)cc13)-c1cc3c(c(=O)n1C2)COC(=O)[C@]3(O)CC` [IRINOTECAN], the half-inhibitory concentration (IC50) result in series [1], in series [2], in series [3] (cho-k1), in series [4], in series [5] and in series [6] was “Not Active” throughout. The IC50 result in series [7] was “Not Active”. Besides, the Ki entry in series [5] is given as “Not Active”.
